The test system of the assay is mixed inoculum of bacteria. As to the kind of experiment: MIC and synergy (K) in nutrient broth, microtiter plates. The assay is classed as cell-based. The protocol:
Stock solutions of each product were prepared in sterile distilled water. Synergism was measured by the method first described by F. C. Kull, P. C. Eisman, H. D. Sylwestrowicz and R. L. Mayer in Applied Microbiology, 9, 538-41 ([…]). This manner of determining synergism has been widely used and is industrially acceptable. It is believed that the specified method is sufficient in explaining the process. However for a further description, reference can be made to U.S. Pat. No. 3,231,509 and its file history, where this type of data was considered acceptable.
• 1. Incubator capable of maintaining a variable temperature range (25-45 C) • 2. Samples of each biocide or test compound to be examined • 3. Microtiter plates—96 well with lid, sterile. • 4. 8-12 channel micropipetting device capable of pipetting 0-250 ul volumes • 5. Micropipette tips capable of holding up to 250 ul volumes • 6. Sterile microbiological culture broth. Trypticase Soy Broth (TSB) or Nutrient Broth (NB) is recommended for bacteria and Sabouraud Maltose Broth (SMB) or Sabouraud Dextrose Broth (SDB) is recommended for yeasts and molds. In the case of this particular study the microbiological culture medium was Nutrient Broth at pH 7.0, 8.0 and 9.0. • 7. Pure cultures of microorganisms of choice grown on appropriate agar medium • 8. Sterile distilled water • 9. 100 mL volumetric flasks (one for each biocide to be tested) • 10. Sterile 10 mL tubes of Phosphate buffer (Butterfield's buffer pH 7.2+/−0.2). Contains purified water, monobasic potassium phosphate and sodium hydroxide for pH adjustment. • 11. Sterile cotton swabs • 12. 0.5 MacFarland Turbidity Standard
The day before testing, perform a streak plate of each organism to be tested on an appropriate agar medium (Trypticase Soy Agar). Organisms tested in this study were: Wild strain bacteria isolated from previously contaminated industrial systems and which were identified as: Pseudomonas sp., Escherchia coli , Enterobacter sp., Alcaligenes sp. and Alcaligenes faecalis. On the day of the test, use a sterile cotton swab to harvest some of the growth. Place swab into a tube containing 10 mL sterile phosphate buffer. Compare and adjust the turbidity of the organisms in the tube to 1×10^8 cfu/mL using a 0.5 MacFarland Turbidity Standard. Dilute the 10 mL tube into 90 mL of sterile 2× nutrient broth at pH 7.0, 8.0 and 9.0.
1. Design the layout of the microtiter plates based on the number of organisms to test and the number of biocides and desired concentrations to test. A separate microtiter plate is required for testing each biocide alone, in addition to the combination microtiter plate. 2. Prepare a working stock solution of each biocide to be tested. For the combination microtiter plate, the working stock solution of Biocide A will be 8× the concentration desired in the first well of the combination microtiter plate. The working stock solution of Biocide B will be 4× the concentration desired in the first well of the combination microtiter plate. For the alone microtiter plates, the working stock solutions of Biocide A and Biocide B will both be 4× the concentration desired in the first well of the single biocide microtiter plates.
Dodecylguanidine hydrochloride: (For combination plates) A solution of this product which is 35% active, was made as follows: […]=8000 ppm active=8000/0.35=22,857 ppm, 2.28 g into 100 mL sterile diH2O. Levels to test are: 1000 ppm, 500 ppm, 250 ppm, 125 ppm, 62.5 ppm, 31.2 ppm, 15.6 ppm, 7.8 ppm, 3.9 ppm, 1.95 ppm
Ortho-PhenylPhenol: (For combination plates) Make a solution of this product which is 99% active, 4×125=500 ppm active=500/0.99=505 ppm, 0.05 g into 100 mL MeOH and sterile diH2O. Level to test is 125 ppm.
3. Place 50 ul of sterile distilled water in all of the rows in columns 1 through 10, and 100 ul of sterile distilled water in all of the rows in columns 11 and 12 of the 96 well combination microtiter plate. […]

The text below walks through data of US20100160445A1, “Synergistic Mixtures of OPP and DGH” (priority 2002, published 2010).

Structures can show the parent of a compound that is named as a salt. Where two headings read alike, the source gives them in different places.

The term MIC denotes the lowest concentration that inhibits growth of the organism.

With `CCCCCCCCCCCCNC(=N)N` [DGH, Dodecylguanidine Hydrochloride], the MIC (pH 7, read-out: MIC, biocide alone) stood at 62.5 µg/mL; the minimum inhibitory concentration (MIC) (pH 8, read-out: MIC, biocide alone) is 15.6 µg/mL; the minimal inhibitory concentration (MIC) (pH 9, read-out: MIC, biocide alone) was determined as 15.6 µg/mL. The “Synergy Index” value (pH 7.0, 62.5 ppm DGH alone (100:0)) was determined as 1.00; the “Synergy Index” value (pH 8.0, 15.6 ppm DGH alone (100:0)) is 1.00; the “Synergy Index” value (pH 9.0, 15.6 ppm DGH alone (100:0)) was found to be 1.00.
